Results as given in patent publication US11045419B2, “Pharmaceutical preparation of carbohydrates for therapeutic use” (Glycomine, Inc., priority 2013, dated 2021).

System: CDG-Ia fibroblasts
Test: LLO oligosaccharide distribution in fibroblasts by normal phase chromatography
Type: cell-based, human
Settings: low glucose DMEM, 300 μM treatment, peak area normalized to protein content
Procedure: Cellular internalization into the cytosol and subsequent integration of the M1P-liposomes (as prepared in Example 1), was assessed in vitro using primary human dermal fibroblasts derived from patients affected with CDG-Ia disorder (CDG-Ia fibroblasts) and wild-type human dermal fibroblasts. For evaluation of the ability of the M1P-liposomes to correct protein glycosylation defects, M1P-liposomes were delivered to CDG Type I primary fibroblasts derived from patients affected with CDG-Ia disorder. The ability to drive glycosylation forward was evaluated by comparing glycoprotein N-glycan structure before and after treatment. Such comparison required N-glycan analysis using normal phase chromatography. By utilizing endocytotic pathways, M1P-liposomes can enter the cell interior and release their cargo into the cytosol. Due to the ability to deliver a non-modified mannose-1-phosphate into the cytosol, analysis was performed on the assembly of LLO oligosaccharides in wild-type fibroblasts and fibroblasts derived from a CDG-Ia patient ([…] structures were isolated from the wild-type fibroblasts (having 100% PMM activity) as well as from the CDG-Ia fibroblasts (having 10% PMM activity) and the amounts of the LLO structures were compared using chromatographic methods. CDG-Ia dermal fibroblasts make a series of truncated lipid-linked oligosaccharide (LLO) species ranging in size from M2Gn2 to M5Gn2 with M2Gn2 and M3Gn2 being predominant. The M1P liposomes from Example 1 were tested in order to evaluate their capacity to normalize the distribution of various LLO oligosaccharides. CDG-Ia fibroblasts cultured in low glucose DMEM media were incubated with 300 μM of bare M1P (M1P) and 300 μM of the M1P-liposomes (M1PL). After treatment, cells were harvested and LLO oligosaccharides were recovered, hydrolyzed, modified with fluorophore, and analyzed by normal phase chromatography as described by Gao et al. (Methods in Enzymology, 2006, 415, 3-20) and Bones et al. (Anal. Chem, 2011, 83 (13), 5344-52). The peak area of each LLO was normalized to protein content prior to calculation of percentage abundance.

SMILES: O=P(O)(O)OC1O[C@H](CO)[C@@H](O)[C@H](O)[C@@H]1O (stereo partly shown) [M1P, mannose-1-phosphate]
- M2Gn2 LLO oligosaccharide distribution (percentage abundance): 40%
- M3Gn2 LLO oligosaccharide distribution (percentage abundance): 24%
- M4Gn2 LLO oligosaccharide distribution (percentage abundance): 27%
- M5Gn2 LLO oligosaccharide distribution (percentage abundance): 8.9%
